Structures can show the parent of a compound that is named as a salt. Where two headings read alike, the source gives them in different places. Bounds are passed on as bounds.

The results in this text go back to patent US9855230B2 (ViiV Healthcare UK (No. 5) Limited, priority 2014, dated 2018).

Data set [1] can be described thus: Compound cytotoxicity (CC50), XTT-based colorimetric assay. Type of data set: cell-based. The settings on record: human; uninfected MT2 cells, day 4, XTT assay. The gist of the method: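 Run under the antiviral-assay protocol but without virus. Viability was read on day 4 and CC50 values were derived from the readout.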
Data set [2] relates to recombinant NL4-3 virus (nef section replaced with Renilla luciferase gene) in MT-2 cells. The data set is described as follows: whole plant or invertebrate. It counts as cell-based, HIV. To be noted: NL43, luciferase activity in MT-2 cells infected 4-5 days with recombinant NL4-3 virus. The gist of the method:
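Nef-deleted NL4-3 reporter virus carrying Renilla luciferase was used to infect MT-2 cells in the presence of serial compound dilutions. After 4-5 days of infection, antiviral activity was quantified from luciferase activity using a live-cell substrate.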

One may read the CC50 as the concentration giving 50% cytotoxicity. The low end stands for harm at low concentration, the high end for better tolerance by the cells. `Cc1cc(-c2cccnc2[C@@H](Cc2cc(F)cc(F)c2)NC(=O)NS(=O)(=O)c2ccccc2Cl)c(C)s1` [Example 104, (R)-2-chloro-N-((2-(3,5-difluorophenyl)-1-(3-(2,5-dimethylthiophen-3-yl)pyridin-2-yl)ethyl)carbamoyl)benzenesulfonamide, TFA] returned a CC50 at 4 day in data set [1] of more than 33 µM. Further, the EC50 in data set [2] (read-out: Activity) was more than 1 µM.

Take `CCOc1ccc(-c2cccnc2[C@@H](Cc2ccccc2)NC(=O)NS(=O)(=O)c2ccccc2C)cc1` [Example 105, (R)-N-((1-(3-(4-ethoxyphenyl)pyridin-2-yl)-2-phenylethyl)carbamoyl)-2-methylbenzenesulfonamide, TFA]: the CC50 at 4 day in data set [1] came to 75 µM. In addition, the EC50 in data set [2] (read-out: Activity) is more than 1 µM; in data set [2] (read-out: EC50), 16.7 µM.

For the molecule `O=C(N[C@H](Cc1cc(F)cc(F)c1)c1ncccc1-c1cccc(C(=O)NC2CC2)c1)NS(=O)(=O)c1ccccc1Cl` [Example 106, (R)-3-(2-(1-(3-((2-chlorophenyl)sulfonyl)ureido)-2-(3,5-difluorophenyl)ethyl)pyridin-3-yl)-N-cyclopropylbenzamide, TFA], the CC50 at 4 day in data set [1] was more than 100 µM. For the same molecule, the EC50 in data set [2] (read-out: Activity) was more than 1 µM.

Regarding `Cc1ccccc1S(=O)(=O)NC(=O)N[C@H](Cc1cc(F)cc(F)c1)c1ncccc1Br` [Example 107, (R)-N-((1-(3-bromopyridin-2-yl)-2-(3,5-difluorophenyl)ethyl)carbamoyl)-2-methylbenzenesulfonamide, TFA], the CC50 at 4 day in data set [1] is more than 33 µM. Besides, the EC50 in data set [2] (read-out: Activity) is more than 1 µM.

In turn, `NC(=O)c1cc(-c2cccnc2[C@@H](Cc2cc(F)cc(F)c2)NC(=O)NS(=O)(=O)c2ccccc2Cl)ccc1F` [Example 109, (R)-5-(2-(1-(3-((2-chlorophenyl)sulfonyl)ureido)-2-(3,5-difluorophenyl)ethyl)pyridin-3-yl)-2-fluorobenzamide, TFA] came in with a half-maximal cytotoxic concentration (CC50) at 4 day in data set [1] of more than 100 µM. For the same molecule, the EC50 in data set [2] (read-out: Activity) was more than 1 µM.

`O=C(N[C@H](Cc1cc(F)cc(F)c1)c1ncccc1-c1cncc(F)c1)NS(=O)(=O)c1ccccc1Cl` [Example 110, (R)-2-chloro-N-((2-(3,5-difluorophenyl)-1-(5′-fluoro-[3,3′-bipyridin]-2-yl)ethyl)carbamoyl)benzenesulfonamide, TFA] came in with a CC50 at 4 day in data set [1] of more than 33 µM. The EC50 in data set [2] (read-out: Activity) is more than 1 µM.

In the case of `COC(=O)Nc1ccc(-c2cccnc2[C@@H](Cc2ccccc2)NC(=O)NS(=O)(=O)c2ccccc2Cl)cc1` [Example 111, (R)-methyl (4-(2-(1-(3-((2-chlorophenyl)sulfonyl)ureido)-2-phenylethyl)pyridin-3-yl)phenyl)carbamate, TFA], the midpoint of cytotoxicity in data set [1], the CC50 at 4 day, lay at 82 µM. For the same molecule, the EC50 was more than 1 µM in data set [2] (read-out: Activity) and 30.4 µM in data set [2] (read-out: EC50).

With `Cc1ccccc1S(=O)(=O)NC(=O)N[C@H](Cc1ccccc1)c1ncccc1Br` [Example 112, (R)-N-((1-(3-bromopyridin-2-yl)-2-phenylethyl)carbamoyl)-2-methylbenzenesulfonamide, TFA], the half-maximal cytotoxic concentration (CC50) at 4 day in data set [1] is more than 100 µM. Moreover, the EC50 in data set [2] (read-out: Activity) is more than 1 µM.

`Cc1ccccc1S(=O)(=O)NC(=O)NC(Cc1ccccc1)c1ncccc1Br` (stereo not drawn) [Example 116, N-((1-(3-bromopyridin-2-yl)-2-phenylethyl)carbamoyl)-2-methylbenzenesulfonamide, TFA] had a CC50 at 4 day in data set [1] of more than 100 µM. The EC50 in data set [2] (read-out: Activity) was more than 1 µM.

`Cc1ccccc1S(=O)(=O)NC(=O)N[C@H](Cc1cc(F)cc(F)c1)c1ncccc1-c1ccc(F)c(C(N)=O)c1` [Example 117, (R)-5-(2-(2-(3,5-difluorophenyl)-1-(3-(o-tolylsulfonyl)ureido)ethyl)pyridin-3-yl)-2-fluorobenzamide, TFA] gave a CC50 at 4 day in data set [1] of more than 100 µM. The EC50 in data set [2] (read-out: Activity) was more than 1 µM; in data set [2] (read-out: EC50) it was 8.34 µM.

`COC(=O)Nc1ccc(-c2cccnc2C(Cc2ccccc2)NC(=O)NS(=O)(=O)c2ccccc2Cl)cc1` (stereo not drawn) [Example 118, methyl (4-(2-(1-(3-((2-chlorophenyl)sulfonyl)ureido)-2-phenylethyl)pyridin-3-yl)phenyl)carbamate, TFA]: the 50% cytotoxic concentration (CC50) at 4 day in data set [1] is more than 100 µM. For the same molecule, the EC50 in data set [2] (read-out: Activity) was more than 1 µM.

Regarding `Cc1ccccc1S(=O)(=O)NC(=O)N[C@@H](Cc1cc(F)cc(F)c1)c1ncccc1-c1ccc2cn(C)nc2c1` [Example 119, (S)-N-((2-(3,5-difluorophenyl)-1-(3-(2-methyl-2H-indazol-6-yl)pyridin-2-yl)ethyl)carbamoyl)-2-methylbenzenesulfonamide, TFA], half-maximal cytotoxicity in data set [1] (CC50 at 4 day) was put at 58 µM. Besides, the EC50 in data set [2] (read-out: Activity) lay within 0.1 to 1 µM.

Turning to `Cc1ccccc1S(=O)(=O)NC(=O)N[C@@H](Cc1cc(F)cc(F)c1)c1ncccc1-c1ccc(CN(C)C)cc1` [Example 120, (S)-N-((2-(3,5-difluorophenyl)-1-(3-(4-((dimethylamino)methyl)phenyl)pyridin-2-yl)ethyl)carbamoyl)-2-methylbenzenesulfonamide, TFA], the CC50 at 4 day in data set [1] is more than 100 µM. In addition, the results for the EC50 in data set [2] (read-out: Activity) and in data set [2] (read-out: EC50) were 0.1 to 1 µM and 0.36 µM, respectively.

`Cc1ccccc1S(=O)(=O)NC(=O)N[C@@H](Cc1cc(F)cc(F)c1)c1ncccc1-c1cccc(CO)c1` [Example 121, (S)-N-((2-(3,5-difluorophenyl)-1-(3-(3-(hydroxymethyl)phenyl)pyridin-2-yl)ethyl)carbamoyl)-2-methylbenzenesulfonamide, TFA] showed a CC50 at 4 day in data set [1] of more than 100 µM. Besides, in data set [2] (read-out: Activity), the EC50 was in the range of 0.1 to 1 µM.

In data set [1], `Cc1ccccc1S(=O)(=O)NC(=O)N[C@@H](Cc1cc(F)cc(F)c1)c1ncccc1-c1ccc(CN2CCOCC2)s1` [Example 122, (S)-N-((2-(3,5-difluorophenyl)-1-(3-(5-(morpholinomethyl)thiophen-2-yl)pyridin-2-yl)ethyl)carbamoyl)-2-methylbenzenesulfonamide, 2 TFA] showed a CC50 at 4 day of more than 100 µM. The EC50 in data set [2] (read-out: Activity) was 0.1 to 1 µM.

In turn, `CCOc1ccc(-c2cccnc2[C@H](Cc2cc(F)cc(F)c2)NC(=O)NS(=O)(=O)c2ccccc2C)cc1F` [Example 123, (S)-N-((2-(3,5-difluorophenyl)-1-(3-(4-ethoxy-3-fluorophenyl)pyridin-2-yl)ethyl)carbamoyl)-2-methylbenzenesulfonamide, TFA] registered a half-maximal cytotoxic concentration (CC50) at 4 day in data set [1] of 55 µM. The EC50 in data set [2] (read-out: Activity) is 0.1 to 1 µM; in data set [2] (read-out: EC50), 0.6 µM.

The molecule `COc1ncccc1-c1cccnc1[C@H](Cc1cc(F)cc(F)c1)NC(=O)NS(=O)(=O)c1ccccc1C` [Example 124, (S)-N-((2-(3,5-difluorophenyl)-1-(2′-methoxy-[3,3′-bipyridin]-2-yl)ethyl)carbamoyl)-2-methylbenzenesulfonamide, TFA] displayed a CC50 at 4 day in data set [1] of more than 100 µM. Further, in data set [2] (read-out: Activity), the EC50 is more than 1 µM.

In data set [1], `Cc1ccccc1S(=O)(=O)NC(=O)N[C@@H](Cc1cc(F)cc(F)c1)c1ncccc1-c1ccc(-c2cccs2)cc1` [Example 125, (S)-N-((2-(3,5-difluorophenyl)-1-(3-(4-(thiophen-2-yl)phenyl)pyridin-2-yl)ethyl)carbamoyl)-2-methylbenzenesulfonamide, TFA] showed a CC50 at 4 day of 38 µM. In addition, the EC50 in data set [2] (read-out: Activity) was more than 1 µM.

For the molecule `Cc1ccccc1S(=O)(=O)NC(=O)N[C@@H](Cc1cc(F)cc(F)c1)c1ncccc1-c1ccnc(F)c1C` [Example 126, (S)-N-((2-(3,5-difluorophenyl)-1-(2′-fluoro-3′-methyl-[3,4′-bipyridin]-2-yl)ethyl)carbamoyl)-2-methylbenzenesulfonamide, TFA], the CC50 at 4 day in data set [1] is more than 33 µM. Also, the values for the EC50 in data set [2] (read-out: Activity) and in data set [2] (read-out: EC50) were more than 1 µM and 1.52 µM, respectively.

For `Cc1ccccc1S(=O)(=O)NC(=O)N[C@@H](Cc1cc(F)cc(F)c1)c1ncccc1-c1coc2ccccc12` [Example 127, (S)-N-((1-(3-(benzofuran-3-yl)pyridin-2-yl)-2-(3,5-difluorophenyl)ethyl)carbamoyl)-2-methylbenzenesulfonamide, TFA], half-maximal cytotoxicity in data set [1] (CC50 at 4 day) was put at 72 µM. The EC50 in data set [2] (read-out: Activity) was more than 1 µM.

As for `Cc1ccccc1S(=O)(=O)NC(=O)N[C@@H](Cc1cc(F)cc(F)c1)c1ncccc1-c1ccc(C#N)cc1` [Example 128, (S)-N-((1-(3-(4-cyanophenyl)pyridin-2-yl)-2-(3,5-difluorophenyl)ethyl)carbamoyl)-2-methylbenzenesulfonamide, TFA], the CC50 at 4 day in data set [1] came to 80 µM. The EC50 in data set [2] (read-out: Activity) is more than 1 µM.

In turn, `Cc1ccccc1S(=O)(=O)NC(=O)N[C@@H](Cc1cc(F)cc(F)c1)c1ncccc1-c1cccc(C(=O)OC(C)(C)C)c1` [Example 130, (S)-tert-butyl 3-(2-(2-(3,5-difluorophenyl)-1-(3-(o-tolylsulfonyl)ureido)ethyl)pyridin-3-yl)benzoate, TFA] displayed a CC50 at 4 day in data set [1] of 53 µM. Further, in data set [2] (read-out: Activity), the EC50 was more than 1 µM.

For the molecule `Cc1ccccc1S(=O)(=O)NC(=O)N[C@@H](Cc1cc(F)cc(F)c1)c1ncccc1-c1ccc(F)c(C(=O)O)c1` [Example 131, (S)-5-(2-(2-(3,5-difluorophenyl)-1-(3-(o-tolylsulfonyl)ureido)ethyl)pyridin-3-yl)-2-fluorobenzoic Acid, TFA], the CC50 at 4 day in data set [1] is more than 100 µM. In addition, the EC50 in data set [2] (read-out: Activity) is more than 1 µM.

Consider `Cc1ccccc1S(=O)(=O)NC(=O)N[C@@H](Cc1cc(F)cc(F)c1)c1ncccc1-c1ccc(F)c2ccccc12` [Example 132, (S)-N-((2-(3,5-difluorophenyl)-1-(3-(4-fluoronaphthalen-1-yl)pyridin-2-yl)ethyl)carbamoyl)-2-methylbenzenesulfonamide, TFA], for which the CC50 at 4 day in data set [1] came to 73 µM. The EC50 in data set [2] (read-out: Activity) was more than 1 µM; in data set [2] (read-out: EC50), 4.81 µM.

As for `Cc1cc(-c2cccnc2[C@H](Cc2cc(F)cc(F)c2)NC(=O)NS(=O)(=O)c2ccccc2C)c(C)s1` [Example 133, (S)-N-((2-(3,5-difluorophenyl)-1-(3-(2,5-dimethylthiophen-3-yl)pyridin-2-yl)ethyl)carbamoyl)-2-methylbenzenesulfonamide, TFA], the midpoint of cytotoxicity in data set [1], the CC50 at 4 day, lay at 71 µM. The EC50 in data set [2] (read-out: Activity) was more than 1 µM.
